Results from PubChem BioAssay (NCI).
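In this assay, cells in 96-well plates receive the compound at five concentrations for 48 hours. Endpoints are linearly interpolated between the surrounding concentrations. TGI denotes the concentration required for complete inhibition of growth.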

How the values were obtained:
Assay in all cases: NCI tumour cell line growth inhibition, 48 h
786-0 renal = system: 786-0 renal
A498 renal = system: A498 renal
A549 NSCLC = system: A549 NSCLC
ACHN renal = system: ACHN renal
BT-549 breast = system: BT-549 breast
CAKI-1 renal = system: CAKI-1 renal
CCRF-CEM leukemia = system: CCRF-CEM leukemia
COLO 205 colon = system: COLO 205 colon
DU-145 prostate = system: DU-145 prostate
EKVX NSCLC = system: EKVX NSCLC
HCC-2998 colon = system: HCC-2998 colon
HCT-116 colon = system: HCT-116 colon
HCT-15 colon = system: HCT-15 colon
HOP-62 NSCLC = system: HOP-62 NSCLC
HS 578T breast = system: HS 578T breast
HT29 colon = system: HT29 colon
IGROV1 ovarian = system: IGROV1 ovarian
K-562 leukemia = system: K-562 leukemia
KM12 colon = system: KM12 colon
LOX IMVI melanoma = system: LOX IMVI melanoma
M14 melanoma = system: M14 melanoma
MALME-3M melanoma = system: MALME-3M melanoma
MCF7 breast = system: MCF7 breast
MDA-MB-231 breast = system: MDA-MB-231 breast
MDA-MB-435 = system: MDA-MB-435
MDA-N = system: MDA-N
MOLT-4 leukemia = system: MOLT-4 leukemia
NCI-H226 lung = system: NCI-H226 lung
NCI-H23 lung = system: NCI-H23 lung
NCI-H460 lung = system: NCI-H460 lung
NCI-H522 lung = system: NCI-H522 lung
NCI/ADR-RES ovarian = system: NCI/ADR-RES ovarian
OVCAR-3 ovarian = system: OVCAR-3 ovarian
OVCAR-4 ovarian = system: OVCAR-4 ovarian
OVCAR-5 ovarian = system: OVCAR-5 ovarian
OVCAR-8 ovarian = system: OVCAR-8 ovarian
PC-3 prostate = system: PC-3 prostate
RXF 393 renal = system: RXF 393 renal
SF-268 CNS = system: SF-268 CNS
SF-295 CNS = system: SF-295 CNS
SF-539 CNS = system: SF-539 CNS
SK-MEL-2 melanoma = system: SK-MEL-2 melanoma
SK-MEL-28 melanoma = system: SK-MEL-28 melanoma
SK-MEL-5 melanoma = system: SK-MEL-5 melanoma
SK-OV-3 ovarian = system: SK-OV-3 ovarian
SN12C renal = system: SN12C renal
SNB-19 CNS = system: SNB-19 CNS
SR leukemia = system: SR leukemia
SW-620 colon = system: SW-620 colon
T-47D breast = system: T-47D breast
TK-10 renal = system: TK-10 renal
U251 CNS = system: U251 CNS
UACC-257 melanoma = system: UACC-257 melanoma
UACC-62 melanoma = system: UACC-62 melanoma
UO-31 renal = system: UO-31 renal
HL-60(TB) leukemia = system: HL-60(TB) leukemia
HOP-92 NSCLC = system: HOP-92 NSCLC
RPMI-8226 leukemia = system: RPMI-8226 leukemia
SNB-75 CNS = system: SNB-75 CNS

Cc1cc(S(=O)(=O)n2cc[nH]c2=O)c(SCCCN(C)C)cc1Cl
TGI (786-0 renal): > 100 µM
TGI (A498 renal): > 100 µM
TGI (A549 NSCLC): > 100 µM
TGI (ACHN renal): > 100 µM
TGI (BT-549 breast): > 100 µM
TGI (CAKI-1 renal): > 100 µM
TGI (CCRF-CEM leukemia): > 100 µM
TGI (COLO 205 colon): > 100 µM
TGI (DU-145 prostate): > 100 µM
TGI (EKVX NSCLC): > 100 µM
TGI (HCC-2998 colon): > 100 µM
TGI (HCT-116 colon): > 100 µM
TGI (HCT-15 colon): > 100 µM
TGI (HOP-62 NSCLC): > 100 µM
TGI (HS 578T breast): > 100 µM
TGI (HT29 colon): > 100 µM
TGI (IGROV1 ovarian): > 100 µM
TGI (K-562 leukemia): > 100 µM
TGI (KM12 colon): > 100 µM
TGI (LOX IMVI melanoma): > 100 µM
TGI (M14 melanoma): > 100 µM
TGI (MALME-3M melanoma): > 100 µM
TGI (MCF7 breast): > 100 µM
TGI (MDA-MB-231 breast): > 100 µM
TGI (MDA-MB-435): > 100 µM
TGI (MDA-N): > 100 µM
TGI (MOLT-4 leukemia): > 100 µM
TGI (NCI-H226 lung): > 100 µM
TGI (NCI-H23 lung): > 100 µM
TGI (NCI-H460 lung): > 100 µM
TGI (NCI-H522 lung): > 100 µM
TGI (NCI/ADR-RES ovarian): > 100 µM
TGI (OVCAR-3 ovarian): > 100 µM
TGI (OVCAR-4 ovarian): > 100 µM
TGI (OVCAR-5 ovarian): > 100 µM
TGI (OVCAR-8 ovarian): > 100 µM
TGI (PC-3 prostate): > 100 µM
TGI (RXF 393 renal): > 100 µM
TGI (SF-268 CNS): > 100 µM
TGI (SF-295 CNS): > 100 µM
TGI (SF-539 CNS): > 100 µM
TGI (SK-MEL-2 melanoma): > 100 µM
TGI (SK-MEL-28 melanoma): > 100 µM
TGI (SK-MEL-5 melanoma): > 100 µM
TGI (SK-OV-3 ovarian): > 100 µM
TGI (SN12C renal): > 100 µM
TGI (SNB-19 CNS): > 100 µM
TGI (SR leukemia): > 100 µM
TGI (SW-620 colon): > 100 µM
TGI (T-47D breast): > 100 µM
TGI (TK-10 renal): > 100 µM
TGI (U251 CNS): > 100 µM
TGI (UACC-257 melanoma): > 100 µM
TGI (UACC-62 melanoma): > 100 µM
TGI (UO-31 renal): > 100 µM

O=C1C[C@@H](Sc2ccccc2)C2(OCCO2)C2ON3CCCC[C@H]3[C@H]12 (stereo partly drawn)
TGI (786-0 renal): 12.7 µM
TGI (A498 renal): > 95.3 µM
TGI (A549 NSCLC): 31.4 µM
TGI (ACHN renal): 6.33 µM
TGI (BT-549 breast): 20.7 µM
TGI (CAKI-1 renal): 21 µM
TGI (CCRF-CEM leukemia): 4.71 µM
TGI (COLO 205 colon): 27.1 µM
TGI (DU-145 prostate): 24.5 µM
TGI (EKVX NSCLC): 26.1 µM
TGI (HCT-116 colon): 16.7 µM
TGI (HCT-15 colon): > 29.6 µM
TGI (HL-60(TB) leukemia): 4.9 µM
TGI (HOP-62 NSCLC): 33 µM
TGI (HOP-92 NSCLC): 19.2 µM
TGI (HS 578T breast): 31 µM
TGI (HT29 colon): 15.7 µM
TGI (IGROV1 ovarian): 19.2 µM
TGI (K-562 leukemia): 6.79 µM
TGI (KM12 colon): 19.7 µM
TGI (LOX IMVI melanoma): 10.1 µM
TGI (M14 melanoma): 30.3 µM
TGI (MALME-3M melanoma): 22.9 µM
TGI (MCF7 breast): 14.3 µM
TGI (MDA-MB-231 breast): 25.9 µM
TGI (MDA-MB-435): 34.7 µM
TGI (MDA-N): 33.3 µM
TGI (MOLT-4 leukemia): 5.1 µM
TGI (NCI-H226 lung): 33.2 µM
TGI (NCI-H23 lung): 22.8 µM
TGI (NCI-H460 lung): 28.8 µM
TGI (NCI-H522 lung): 6.93 µM
TGI (NCI/ADR-RES ovarian): 18.9 µM
TGI (OVCAR-3 ovarian): 26.8 µM
TGI (OVCAR-4 ovarian): 21.8 µM
TGI (OVCAR-5 ovarian): 33.5 µM
TGI (OVCAR-8 ovarian): 13.9 µM
TGI (PC-3 prostate): 24.2 µM
TGI (RPMI-8226 leukemia): 12.5 µM
TGI (RXF 393 renal): 12.3 µM
TGI (SF-268 CNS): 23.3 µM
TGI (SF-295 CNS): 38.4 µM
TGI (SF-539 CNS): 4.5 µM
TGI (SK-MEL-2 melanoma): 39.8 µM
TGI (SK-MEL-28 melanoma): 41.6 µM
TGI (SK-MEL-5 melanoma): 20.7 µM
TGI (SK-OV-3 ovarian): > 100 µM
TGI (SN12C renal): 14.8 µM
TGI (SNB-19 CNS): 32.1 µM
TGI (SNB-75 CNS): 29.9 µM
TGI (SR leukemia): 4.35 µM
TGI (SW-620 colon): 14.4 µM
TGI (T-47D breast): 46.8 µM
TGI (TK-10 renal): 13 µM
TGI (U251 CNS): > 39.5 µM
TGI (UACC-257 melanoma): 28.1 µM
TGI (UACC-62 melanoma): 18.5 µM
TGI (UO-31 renal): 17.3 µM
